Starred links: 1 amine or outer side, 2 acyl side, 3 side chain; linkers in the order of their positions; H or OH if unused. Positions of bridges follow the written chain, without caps; N, C: chain ends. Non-standard residues stand in square brackets, D forms with d. Residues, ends and D or L forms follow the SMILES beside them. Phe(4-F) = N[C@@H](Cc1ccc(F)cc1)C(=O)O; X1 = CC(C)CCC[C@H](N[*:1])C(=O)[*:2]; R8 = C=CCCCCCC[C@@](C)(N)C(=O)O; hLeu = CC(C)CC[C@H](N)C(=O)O; S5 = C=CCCC[C@](C)(N)C(=O)O; Ac6c = NC1(C(=O)O)CCCCC1; Ac5c = NC1(C(=O)O)CCCC1; Aib = CC(C)(N)C(=O)O
molecular target: Bcl-xL (Homo sapiens, UniProt Q07817); experiment: Ki determination for Bcl-xL (BCL-2 family binding spectrum); settings: read-out: Ki BCL-XL
Sequence (Q07817 whole entry, species assumed): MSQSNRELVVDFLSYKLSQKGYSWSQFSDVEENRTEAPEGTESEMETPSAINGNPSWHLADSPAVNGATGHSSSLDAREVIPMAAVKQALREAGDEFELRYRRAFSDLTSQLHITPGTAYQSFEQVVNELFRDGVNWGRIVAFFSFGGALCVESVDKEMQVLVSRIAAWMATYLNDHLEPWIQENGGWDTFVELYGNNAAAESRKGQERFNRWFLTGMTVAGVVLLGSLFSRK
Text: To assess the binding and affinity of compounds that antagonize the interaction between a peptide and an acceptor protein, a fluorescence polarization assay (FPA) utilizing a fluoresceinated peptidomimetic macrocycle derived from a peptidomimetic precursor sequence is used, for example. The FPA technique measures the molecular orientation and mobility using polarized light and fluorescent tracer. […] A compound that antagonizes the interaction between the fluoresceinated peptidomimetic macrocycle and an acceptor protein will be detected in a competitive binding FPA experiment.
For example, putative antagonist compounds (1 nM to 1 mM) and a fluoresceinated peptidomimetic macrocycle (25 nM) are incubated with the acceptor protein (50 nM) in binding buffer (140 mM NaCl, 50 mM Tris-HCL, pH 7.4) for 30 minutes at room temperature. Antagonist binding activity is measured, for example, by fluorescence polarization on a luminescence spectrophotometer (e.g. Perkin-Elmer LS50B). Kd values may be determined by nonlinear regression analysis using, for example, Graphpad Prism software (GraphPad Software, Inc., San Diego, Calif.).

| Ki [nM] | Compound |
| --- | --- |
| 7.7 | CC[C@H](C)[C@H](NC(C)=O)C(=O)N[C@@H](Cc1c[nH]c2ccccc12)C(=O)N[C@H](C(=O)N[C@@H](C)C(=O)N[C@@H](CCC(N)=O)C(=O)N[C@@H](C)C(=O)N[C@@H](CC(C)C)C(=O)N[C@@H](CCCNC(=N)N)C(=O)N[C@]1(C)CCCCCCC=CCCC[C@@](C)(C(=O)N[C@@H](Cc2ccc(O)cc2)C(=O)N[C@@H](Cc2ccc(O)cc2)C(=O)N[C@@H](C)C(N)=O)NC(=O)[C@H](CC(N)=O)NC(=O)[C@H](Cc2ccccc2)NC(=O)[C@H](C)NC(=O)[C@H](CC(=O)O)NC(=O)[C@H](C)NC(=O)[C@H]([C@@H](C)CC)NC1=O)[C@@H](C)CC [compound 1665] (Ac-IWIAQALR[R8]IADAFN[S5]YYA-NH2; staple 9-16) |
| > 1000 | CC[C@H](C)[C@H](NC(C)=O)C(=O)N[C@@H](Cc1c[nH]c2ccccc12)C(=O)N[C@H](C(=O)N[C@@H](C)C(=O)N[C@@H](CCC(N)=O)C(=O)N[C@@H](C)C(=O)N[C@@H](CC(C)C)C(=O)N[C@@H](CCCNC(=N)N)C(=O)N[C@]1(C)CCCCCCC=CCCC[C@@](C)(C(=O)N[C@@H](Cc2ccc(O)cc2)C(=O)N[C@@H](Cc2ccc(O)cc2)C(=O)NC(C)(C)C(N)=O)NC(=O)[C@H](CC(N)=O)NC(=O)[C@H](Cc2ccccc2)NC(=O)[C@H](C)NC(=O)[C@H](CC(=O)O)NC(=O)CNC(=O)[C@H]([C@@H](C)CC)NC1=O)[C@@H](C)CC [compound 1770] (Ac-IWIAQALR[R8]IGDAFN[S5]YY[Aib]-NH2; staple 9-16) |
| 25.9 | CC[C@H](C)[C@H](NC(C)=O)C(=O)N[C@@H](Cc1c[nH]c2ccccc12)C(=O)N[C@@H](Cc1ccccc1)C(=O)N[C@@H](C)C(=O)N[C@@H](CCC(N)=O)C(=O)N[C@@H](C)C(=O)N[C@@H](CC(C)C)C(=O)N[C@@H](CCCNC(=N)N)C(=O)N[C@]1(C)CCCCCCC=CCCC[C@@](C)(C(=O)N[C@@H](Cc2ccc(O)cc2)C(=O)N[C@@H](Cc2ccc(O)cc2)C(=O)N[C@@H](C)C(N)=O)NC(=O)[C@H](CC(N)=O)NC(=O)[C@H](Cc2ccccc2)NC(=O)[C@H](CCC(N)=O)NC(=O)[C@H](CC(=O)O)NC(=O)CNC(=O)[C@H]([C@@H](C)CC)NC1=O [compound 1672] (Ac-IWFAQALR[R8]IGDQFN[S5]YYA-NH2; staple 9-16) |
| 4 | CC[C@H](C)[C@H](NC(C)=O)C(=O)N[C@@H](Cc1c[nH]c2ccccc12)C(=O)N[C@H](C(=O)N[C@@H](C)C(=O)N[C@@H](CCC(N)=O)C(=O)N[C@@H](C)C(=O)N[C@@H](CC(C)C)C(=O)N[C@@H](CCCNC(=N)N)C(=O)N[C@]1(C)CCCCCCC=CCCC[C@@](C)(C(=O)N[C@@H](Cc2ccc(O)cc2)C(=O)N[C@@H](Cc2ccc(O)cc2)C(=O)N[C@@H](C)C(N)=O)NC(=O)[C@H](CC(N)=O)NC(=O)[C@H](Cc2ccccc2)NC(=O)[C@H](C)NC(=O)[C@H](CC(=O)O)NC(=O)CNC(=O)[C@H](CCCC(C)C)NC1=O)[C@@H](C)CC [compound 1702] (Ac-IWIAQALR[R8][X1]GDAFN[S5]YYA-NH2; staple 9-16) |
| 36.3 | CC[C@H](C)[C@H](NC(C)=O)C(=O)N[C@@H](CC(=O)O)C(=O)N[C@H](C(=O)N[C@@H](C)C(=O)N[C@@H](C)C(=O)N[C@@H](C)C(=O)N[C@@H](CC(C)C)C(=O)N[C@@H](CCCNC(=N)N)C(=O)N[C@]1(C)CCCCCCC=CCCC[C@@](C)(C(=O)N[C@@H](Cc2ccc(O)cc2)C(=O)N[C@@H](Cc2ccc(O)cc2)C(=O)N[C@@H](C)C(N)=O)NC(=O)[C@H](CC(N)=O)NC(=O)[C@H](Cc2ccccc2)NC(=O)[C@H](C)NC(=O)[C@H](CC(=O)O)NC(=O)CNC(=O)[C@H]([C@@H](C)CC)NC1=O)[C@@H](C)CC [compound 1725] (Ac-IDIAAALR[R8]IGDAFN[S5]YYA-NH2; staple 9-16) |
| 9 | CC[C@H](C)[C@H](NC(=O)[C@H](Cc1c[nH]c2ccccc12)NC(=O)[C@H](C)NC(C)=O)C(=O)N[C@@H](C)C(=O)N[C@@H](C)C(=O)N[C@@H](C)C(=O)N[C@@H](CC(C)C)C(=O)N[C@@H](CCCNC(=N)N)C(=O)N[C@]1(C)CCCCCCC=CCCC[C@@](C)(C(=O)N[C@@H](C)C(=O)N[C@@H](Cc2ccc(F)cc2)C(=O)N[C@@H](C)C(N)=O)NC(=O)[C@H](CC(N)=O)NC(=O)[C@H](Cc2ccccc2)NC(=O)[C@H](C)NC(=O)[C@H](CC(=O)O)NC(=O)CNC(=O)[C@H](CCC(C)C)NC1=O [compound 1780] (Ac-AWIAAALR[R8][hLeu]GDAFN[S5]A[Phe(4-F)]A-NH2; staple 9-16) |
| 154 | CC[C@H](C)[C@H](NC(C)=O)C(=O)N[C@@H](Cc1c[nH]c2ccccc12)C(=O)N[C@H](C(=O)N[C@@H](C)C(=O)N[C@@H](CCC(N)=O)C(=O)N[C@@H](C)C(=O)N[C@@H](C)C(=O)N[C@@H](CCCNC(=N)N)C(=O)N[C@]1(C)CCCCCCC=CCCC[C@@](C)(C(=O)N[C@@H](Cc2ccc(O)cc2)C(=O)N[C@@H](Cc2ccc(O)cc2)C(=O)N[C@@H](C)C(N)=O)NC(=O)[C@H](CC(N)=O)NC(=O)[C@H](C)NC(=O)[C@H](C)NC(=O)[C@H](CC(=O)O)NC(=O)CNC(=O)[C@H]([C@@H](C)CC)NC1=O)[C@@H](C)CC [compound 1664] (Ac-IWIAQAAR[R8]IGDAAN[S5]YYA-NH2; staple 9-16) |
| 9 | CC[C@H](C)[C@H](NC(C)=O)C(=O)N[C@@H](Cc1c[nH]c2ccccc12)C(=O)N[C@H](C(=O)N[C@@H](C)C(=O)N[C@@H](CCC(N)=O)C(=O)N[C@@H](C)C(=O)N[C@@H](CC(C)C)C(=O)N[C@@H](CCCNC(=N)N)C(=O)N[C@]1(C)CCCCCCC=CCCC[C@@](C)(C(=O)N[C@@H](Cc2ccc(O)cc2)C(=O)N[C@@H](CC(C)C)C(=O)N[C@@H](C)C(N)=O)NC(=O)[C@H](CC(N)=O)NC(=O)[C@H](Cc2ccccc2)NC(=O)[C@H](C)NC(=O)[C@H](CC(=O)O)NC(=O)CNC(=O)[C@H]([C@@H](C)CC)NC1=O)[C@@H](C)CC [compound 1755] (Ac-IWIAQALR[R8]IGDAFN[S5]YLA-NH2; staple 9-16) |
| 8.4 | CC[C@H](C)[C@H](NC(C)=O)C(=O)N[C@@H](Cc1c[nH]c2ccccc12)C(=O)NC1(C(=O)N[C@@H](C)C(=O)N[C@@H](CCC(N)=O)C(=O)N[C@@H](C)C(=O)N[C@@H](CC(C)C)C(=O)N[C@@H](CCCNC(=N)N)C(=O)N[C@]2(C)CCCCCCC=CCCC[C@@](C)(C(=O)N[C@@H](Cc3ccc(O)cc3)C(=O)N[C@@H](Cc3ccc(O)cc3)C(=O)N[C@@H](C)C(N)=O)NC(=O)[C@H](CC(N)=O)NC(=O)[C@H](Cc3ccccc3)NC(=O)[C@H](C)NC(=O)[C@H](CC(=O)O)NC(=O)CNC(=O)[C@H]([C@@H](C)CC)NC2=O)CCCC1 [compound 1715] (Ac-IW[Ac5c]AQALR[R8]IGDAFN[S5]YYA-NH2; staple 9-16) |
| 7.7 | CC[C@H](C)[C@H](NC(C)=O)C(=O)N[C@@H](Cc1c[nH]c2ccccc12)C(=O)NC1(C(=O)N[C@@H](C)C(=O)N[C@@H](CCC(N)=O)C(=O)N[C@@H](C)C(=O)N[C@@H](CC(C)C)C(=O)N[C@@H](CCCNC(=N)N)C(=O)N[C@]2(C)CCCCCCC=CCCC[C@@](C)(C(=O)N[C@@H](Cc3ccc(O)cc3)C(=O)N[C@@H](Cc3ccc(O)cc3)C(=O)N[C@@H](C)C(N)=O)NC(=O)[C@H](CC(N)=O)NC(=O)[C@H](Cc3ccccc3)NC(=O)[C@H](C)NC(=O)[C@H](CC(=O)O)NC(=O)CNC(=O)[C@H]([C@@H](C)CC)NC2=O)CCCCC1 [compound 1714] (Ac-IW[Ac6c]AQALR[R8]IGDAFN[S5]YYA-NH2; staple 9-16) |
| 25.9 | CC[C@H](C)[C@H](NC(C)=O)C(=O)N[C@@H](Cc1c[nH]c2ccccc12)C(=O)N[C@H](C(=O)N[C@@H](C)C(=O)N[C@@H](C)C(=O)N[C@@H](C)C(=O)N[C@@H](CC(C)C)C(=O)N[C@@H](CCCNC(=N)N)C(=O)N[C@]1(C)CCCCCCC=CCCC[C@@](C)(C(=O)N[C@@H](Cc2ccc(O)cc2)C(=O)N[C@@H](Cc2ccc(O)cc2)C(=O)N[C@@H](C)C(N)=O)NC(=O)[C@H](CC(=O)O)NC(=O)[C@H](Cc2ccccc2)NC(=O)[C@H](C)NC(=O)[C@H](CC(=O)O)NC(=O)CNC(=O)[C@H]([C@@H](C)CC)NC1=O)[C@@H](C)CC [compound 1748] (Ac-IWIAAALR[R8]IGDAFD[S5]YYA-NH2; staple 9-16) |
| 25.6 | CC[C@H](C)[C@H](NC(C)=O)C(=O)N[C@@H](Cc1c[nH]c2ccccc12)C(=O)N[C@H](C(=O)N[C@@H](C)C(=O)N[C@@H](C)C(=O)N[C@@H](C)C(=O)N[C@@H](CC(C)C)C(=O)N[C@@H](CCCNC(=N)N)C(=O)N[C@]1(C)CCCCCCC=CCCC[C@@](C)(C(=O)N[C@@H](Cc2ccc(O)cc2)C(=O)N[C@@H](Cc2ccc(O)cc2)C(=O)N[C@@H](C)C(N)=O)NC(=O)[C@H](CC(N)=O)NC(=O)[C@H](Cc2ccccc2)NC(=O)[C@H](C)NC(=O)[C@H](CC(=O)O)NC(=O)CNC(=O)[C@H]([C@@H](C)CC)NC1=O)[C@@H](C)CC [compound 1653] (Ac-IWIAAALR[R8]IGDAFN[S5]YYA-NH2; staple 9-16) |
| 25.6 | CC[C@H](C)[C@H](NC(C)=O)C(=O)N[C@@H](Cc1c[nH]c2ccccc12)C(=O)N[C@H](C(=O)N[C@@H](C)C(=O)N[C@@H](CCC(N)=O)C(=O)N[C@@H](C)C(=O)N[C@@H](CC(C)C)C(=O)N[C@@H](CCCNC(=N)N)C(=O)N[C@]1(C)CCCCCCC=CCCC[C@@](C)(C(=O)N[C@@H](Cc2ccc(O)cc2)C(=O)N[C@@H](Cc2ccc(O)cc2)C(=O)N[C@@H](C)C(N)=O)NC(=O)[C@H](CC(N)=O)NC(=O)[C@H](Cc2ccccc2)NC(=O)[C@H](CCC(N)=O)NC(=O)[C@H](CC(=O)O)NC(=O)CNC(=O)[C@H](Cc2ccccc2)NC1=O)[C@@H](C)CC [compound 1670] (Ac-IWIAQALR[R8]FGDQFN[S5]YYA-NH2; staple 9-16) |

Reference: US20190185518A9, “WARHEAD-CONTAINING PEPTIDOMIMETIC MACROCYCLES AS MODULATORS OF BFL-1” (AILERON Therapeutics, Inc., priority 2017, published 2019)
